{"source": "paper PMC7381729", "about": "“A new class of PentixaFor- and PentixaTher-based theranostic agents with enhanced CXCR4-targeting efficiency” (Theranostics, 2020)", "key": {"[1]": {"assay": "Small animal PET imaging in Daudi xenograft bearing mice", "assay_type": "in vivo", "conditions": "CB17 SCID, mouse, iv, total radioactivity, 90 min p.i., dynamic PET, ROI analysis, n=1 per compound", "description": "Small aminal PET imaging studies were performed using a Siemens Inveon PET scanner. Animals were anesthetized with isoflurane and injected via the tail vein with 10 to 15 MBq (0.1 nmol) of the respective tracer. Dynamic imaging (n=1 per compound) was performed after on-bed injection for 1.5 h, and static images (n=1 per compound) were acquired at 1 h p.i. with an acquisition time of 15 min. Data analysis was performed using the Inveon Research Workplace software. Images were reconstructed using a 3D ordered-subsets expectation maximum (OSEM3D) algorithm without scanner and attenuation correction. Time-activity curves (Figure 4) were obtained by generating isocontour regions of interest (ROI) for the tumor and the heart content (as a surrogate for blood activity), as well as by defining two spherical ROIs (each 23.4 mm^3) in the thigh area (muscle) and areas of homogenous tracer uptake in the liver, followed by plotting of average activity ± SD per volume in these ROIs over time.  Figure 4 Results from small animal PET imaging using [^68Ga]PentixaFor (top row), [^68Ga]DOTA-r-a-ABA-CPCR4 (middle row) and [^68Ga]DOTA-r-a-ABA-iodoCPCR4 (bottom row) in Daudi xenograft bearing CB17 SCID mice. Images on the left (MIP) were obtained by static imaging (1h p.i., n=1), the time activity curves (TAC) on the right were acquired by dynamic PET imaging (0-90 min p.i., n=1)."}, "[2]": {"assay": "Biodistribution in Daudi xenograft bearing mice", "assay_type": "in vivo, mouse", "conditions": "female, CB-17 SCID, mouse, iv, total radioactivity, 1h p.i., means ± SD", "how_it_was_run": "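Female CB-17 SCID mice with Daudi xenografts (n=4-5) received 5-10 MBq (0.08-0.11 nmol) ^68Ga- or ^177Lu-labelled ligand i.v.; blocking by coinjected 50 µg AMD3100. Organs counted by γ-counter at 1, 6 and 48 h p.i.; %ID/g (mean ± SD).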"}}, "note": "Where two headings read alike, the source gives them in different places. Where a SMILES comes first, the peptide text is derived from it. Side-chain parts run from the residue outwards. [ ]: non-standard residue; d: D form. The star is where a group is joined. DOTA = O=C(O)CN1CCN(CC(=O)O)CCN(CC(=O)*)CCN(CC(=O)O)CC1; 2Nal = N[C@@H](Cc1ccc2ccccc2c1)C(=O)O; dNMeOrn = CN[C@H](CCCN)C(=O)O; 4Abz = Nc1ccc(C(=O)O)cc1"}
{"smiles": "C[C@@H](NC(=O)[C@@H](CCCNC(=N)N)NC(=O)CN1CCN(CC(=O)O)CCN(CC(=O)O)CCN(CC(=O)O)CC1)C(=O)Nc1ccc(C(=O)NCCC[C@@H]2C(=O)N[C@@H](CCCNC(=N)N)C(=O)N[C@@H](Cc3ccc4ccccc4c3)C(=O)NCC(=O)N[C@H](Cc3ccc(O)cc3)C(=O)N2C)cc1", "note": "[[^68Ga]DOTA-r-a-ABA-CPCR4, metal not drawn] (cyclo([2Nal]G[dY][dNMeOrn]([4Abz-dA-dR-DOTA])R))", "values": [{"measurement": "tissue uptake per volume at 1.5 h", "setting": "[1]; kidney, read-out: Kidney uptake in PET", "value": "9.4 ± 0.2", "unit": "%ID/mL"}, {"measurement": "tissue uptake per volume at 1.5 h", "setting": "[1]; liver, average ± SD per volume in ROI, read-out: Liver uptake in PET", "value": "6 ± 0.2", "unit": "%ID/mL"}, {"measurement": "tissue uptake per volume at 1.5 h", "setting": "[1]; tumor (Daudi xenograft), Daudi xenograft, read-out: Tumor accumulation in PET", "value": "12 ± 0.7", "unit": "%ID/mL"}, {"measurement": "tissue uptake at 1 h", "setting": "[2]; adrenals, tracer only, i.v., γ-counter, n=4-5 (68Ga: n=4), read-out: Biodistribution adrenals", "value": "1.9 ± 1.14", "unit": "%ID/g"}, {"measurement": "tissue uptake at 1 h", "setting": "[2]; adrenals, with AMD3100, 50 µg per animal, coinjected (CXCR4 competition), coinjection of 50 µg AMD3100/animal, n=3, read-out: Biodistribution adrenals, competition with AMD3100", "value": "1.02 ± 0.27", "unit": "%ID/g"}, {"measurement": "tissue uptake at 1 h", "setting": "[2]; blood, with AMD3100, 50 µg per animal, coinjected (CXCR4 competition), coinjection of 50 µg AMD3100/animal, n=3, read-out: Biodistribution blood, competition with AMD3100", "value": "2.98 ± 0.57", "unit": "%ID/g"}, {"measurement": "tissue uptake at 1 h", "setting": "[2]; colon, tracer only, i.v., γ-counter, n=4-5 (68Ga: n=4), read-out: Biodistribution colon", "value": "0.67 ± 0.13", "unit": "%ID/g"}, {"measurement": "tissue uptake at 1 h", "setting": "[2]; colon, with AMD3100, 50 µg per animal, coinjected (CXCR4 competition), coinjection of 50 µg AMD3100/animal, n=3, read-out: Biodistribution colon, competition with AMD3100", "value": "0.47 ± 0.09", "unit": "%ID/g"}, {"measurement": "tissue uptake at 1 h", "setting": "[2]; femur, tracer only, i.v., γ-counter, n=4-5 (68Ga: n=4), read-out: Biodistribution femur", "value": "1.27 ± 0.32", "unit": "%ID/g"}, {"measurement": "tissue uptake at 1 h", "setting": "[2]; femur, with AMD3100, 50 µg per animal, coinjected (CXCR4 competition), coinjection of 50 µg AMD3100/animal, n=3, read-out: Biodistribution femur, competition with AMD3100", "value": "0.74 ± 0.11", "unit": "%ID/g"}, {"measurement": "tissue uptake at 1 h", "setting": "[2]; heart, tracer only, i.v., γ-counter, n=4-5 (68Ga: n=4), read-out: Biodistribution heart", "value": "1.51 ± 0.25", "unit": "%ID/g"}, {"measurement": "tissue uptake at 1 h", "setting": "[2]; heart, with AMD3100, 50 µg per animal, coinjected (CXCR4 competition), coinjection of 50 µg AMD3100/animal, n=3, read-out: Biodistribution heart, competition with AMD3100", "value": "1.37 ± 0.33", "unit": "%ID/g"}, {"measurement": "tissue uptake at 1 h", "setting": "[2]; kidney, tracer only, i.v., γ-counter, n=4-5 (68Ga: n=4), read-out: Biodistribution kidney", "value": "11.5 ± 3.58", "unit": "%ID/g"}, {"measurement": "tissue uptake at 1 h", "setting": "[2]; kidney, with AMD3100, 50 µg per animal, coinjected (CXCR4 competition), coinjection of 50 µg AMD3100/animal, n=3, read-out: Biodistribution kidney, competition with AMD3100", "value": "7.16 ± 1.62", "unit": "%ID/g"}, {"measurement": "tissue uptake at 1 h", "setting": "[2]; liver, with AMD3100, 50 µg per animal, coinjected (CXCR4 competition), coinjection of 50 µg AMD3100/animal, n=3, read-out: Biodistribution liver, competition with AMD3100", "value": "4.62 ± 0.56", "unit": "%ID/g"}, {"measurement": "tissue uptake at 1 h", "setting": "[2]; lung, tracer only, i.v., γ-counter, n=4-5 (68Ga: n=4), read-out: Biodistribution lung", "value": "3.15 ± 0.5", "unit": "%ID/g"}, {"measurement": "tissue uptake at 1 h", "setting": "[2]; lung, with AMD3100, 50 µg per animal, coinjected (CXCR4 competition), coinjection of 50 µg AMD3100/animal, n=3, read-out: Biodistribution lung, competition with AMD3100", "value": "3.12 ± 0.57", "unit": "%ID/g"}, {"measurement": "tissue uptake at 1 h", "setting": "[2]; muscle, tracer only, i.v., γ-counter, n=4-5 (68Ga: n=4), read-out: Biodistribution muscle", "value": "0.45 ± 0.05", "unit": "%ID/g"}, {"measurement": "tissue uptake at 1 h", "setting": "[2]; muscle, with AMD3100, 50 µg per animal, coinjected (CXCR4 competition), coinjection of 50 µg AMD3100/animal, n=3, read-out: Biodistribution muscle, competition with AMD3100", "value": "0.4 ± 0.11", "unit": "%ID/g"}, {"measurement": "tissue uptake at 1 h", "setting": "[2]; pancreas, tracer only, i.v., γ-counter, n=4-5 (68Ga: n=4), read-out: Biodistribution pancreas", "value": "0.68 ± 0.01", "unit": "%ID/g"}, {"measurement": "tissue uptake at 1 h", "setting": "[2]; pancreas, with AMD3100, 50 µg per animal, coinjected (CXCR4 competition), coinjection of 50 µg AMD3100/animal, n=3, read-out: Biodistribution pancreas, competition with AMD3100", "value": "0.69 ± 0.07", "unit": "%ID/g"}, {"measurement": "tissue uptake at 1 h", "setting": "[2]; small intestine, tracer only, i.v., γ-counter, n=4-5 (68Ga: n=4), read-out: Biodistribution small intestine", "value": "0.94 ± 0.13", "unit": "%ID/g"}, {"measurement": "tissue uptake at 1 h", "setting": "[2]; small intestine, with AMD3100, 50 µg per animal, coinjected (CXCR4 competition), coinjection of 50 µg AMD3100/animal, n=3, read-out: Biodistribution small intestine, competition with AMD3100", "value": "0.94 ± 0.31", "unit": "%ID/g"}, {"measurement": "tissue uptake at 1 h", "setting": "[2]; spleen, tracer only, i.v., γ-counter, n=4-5 (68Ga: n=4), read-out: Biodistribution spleen", "value": "2.01 ± 0.19", "unit": "%ID/g"}, {"measurement": "tissue uptake at 1 h", "setting": "[2]; spleen, with AMD3100, 50 µg per animal, coinjected (CXCR4 competition), coinjection of 50 µg AMD3100/animal, n=3, read-out: Biodistribution spleen, competition with AMD3100", "value": "2.38 ± 0.23", "unit": "%ID/g"}, {"measurement": "tissue uptake at 1 h", "setting": "[2]; stomach, tracer only, i.v., γ-counter, n=4-5 (68Ga: n=4), read-out: Biodistribution stomach", "value": "1.2 ± 0.1", "unit": "%ID/g"}, {"measurement": "tissue uptake at 1 h", "setting": "[2]; stomach, with AMD3100, 50 µg per animal, coinjected (CXCR4 competition), coinjection of 50 µg AMD3100/animal, n=3, read-out: Biodistribution stomach, competition with AMD3100", "value": "0.97 ± 0.32", "unit": "%ID/g"}, {"measurement": "tissue uptake at 1 h", "setting": "[2]; tumor (Daudi xenograft), tracer only, i.v., γ-counter, n=4-5 (68Ga: n=4), read-out: Biodistribution tumor (Daudi xenograft)", "value": "11.7 ± 1.31", "unit": "%ID/g"}, {"measurement": "tissue uptake at 1 h", "setting": "[2]; tumor (Daudi xenograft), with AMD3100, 50 µg per animal, coinjected (CXCR4 competition), coinjection of 50 µg AMD3100/animal, n=3, read-out: Biodistribution tumor, competition with AMD3100", "value": "2.52 ± 0.36", "unit": "%ID/g"}]}
